{"source": "patent US20240190854A1", "about": "“PYRIMIDINE OR PYRIDINE DERIVATIVES USEFUL AS HCN2 MODULATORS” (King's College London, priority 2021, published 2024)", "key": {"[1]": {"test_system": "mouse neuropathic pain model (partial sciatic nerve ligation)", "assay": "Mouse neuropathic pain model (PSNL), von Frey filament", "format": "in vivo", "details": "for Mechanical analgesia (von Frey): day 5 after PSNL", "description": "The model used was analogous to the model described in Seltzer Z, Dubner R, & Shir Y (1990), A novel behavioural model of neuropathic pain disorders produced in rats by partial sciatic nerve injury, Pain 43: 205-218). […] Sci Transl Med 9: eaam6072.\nThe mechanical pain threshold was measured by manual von Frey filament applied to hind paw on the operated side, using the “up-down” method.\nMechanical pain threshold was measured as in Example 133 1 day before and 8 days after partial sciatic nerve ligation (PSNL) neuropathic pain induction. The test compound was administered at a low dose of 0.2 mg/kg every two hours with a control arm of vehicle only injections.\nMechanical pain threshold was measured as in Example 133 1 day before and 5-8 days after partial sciatic nerve ligation (PSNL) neuropathic pain induction. The test compound was administered at a dose of 0.5 mg/kg twice-daily at 8 hour intervals with a control arm of vehicle only injections, and mechanical pain threshold was measured 4 hours after the first injection."}, "[2]": {"test_system": "mouse neuropathic pain model (partial sciatic nerve ligation)", "assay": "Mouse neuropathic pain model, paw pressure (Randall Sellito test)", "format": "in vivo"}, "[3]": {"assay": "CNS penetration: plasma, brain and auditory nerve levels", "format": "in vivo", "details": "guinea pig, auditory nerve, other: injection; 30 min after injection, n=2, preliminary; read-out: Ratio of total concentrations auditory nerve : plasma", "description": "Ivabradine in guinea pig plasma, brain (somatosensory cortex) and auditory nerve were assayed at 30 min after injection, the time used in Example 130."}, "[4]": {"test_system": "guinea pigs, salicylate-induced tinnitus", "assay": "GPIAS test, short-term salicylate tinnitus model", "format": "in vivo, guinea pig", "details": "salicylate 350 mg/kg i.p.; ivabradine 5 mg/kg s.c.", "excerpt": "(§1) Tinnitus in guinea pigs was monitored using the gap induced inhibition of the acoustic startle (GPIAS) test (see FIG. 5). GPIAS is reduced when tinnitus was present; see Berger, J. I. et al. Effects of the cannabinoid CB1 agonist ACEA on salicylate ototoxicity, hyperacusis and tinnitus in guinea pigs. Hearing research, (2017), and Coomber, B. et al. Neural changes accompanying tinnitus following unilateral acoustic trauma in the guinea pig. Eur J Neurosci 40, 2427-2441, (2014).\n(§2) In FIG. 5, sound stimulus (above) and corresponding pinna reflex (below) are shown in freely moving guinea pigs. Stimuli with no gap and gap are presented in a randomised order. Traces contaminated by movement (the upper trace in “no gap”) were removed before analysis.\nTinnitus was induced within 1-2 hours in humans by high doses of salicylate. A similar short-term tinnitus model was implemented in guinea pigs by i.p. injection of salicylate. In all animals, salicylate caused behavioural inhibition of GPIAS (see bar 2 in FIG. 6).\nSalicylate (350 mg/kg, i.p.) impairs behavioural gap detection 2 h after salicylate administration (see bar 2 in of FIG. 6). Gap detection was restored by blocking HCN channels with ivabradine (5 mg/kg, s.c.)."}, "[5]": {"test_system": "guinea pigs, noise-exposure tinnitus", "assay": "GPIAS test, noise-exposure tinnitus model", "format": "in vivo, guinea pig", "excerpt": "as §1, §2\nThe noise-exposure model is more clinically relevant than the salicylate model, as it parallels a common cause of tinnitus in humans. A second important point is that it is long-term, while tinnitus induced by salicylate is rapidly reversed following salicylate exposure."}, "Black6 mice": {"test_system": "Black6 mice", "details": "mouse, in vivo; cited from earlier work"}, "mice, normal hearing": {"test_system": "mice, normal hearing", "format": "in vivo", "details": "adult mice; Example 29 at 20 mg/kg ip"}}, "note": "“Also recorded” adds a separate entry of the source. Structures can show the parent of a compound that is named as a salt."}
{"smiles": "CS(=O)(=O)c1ccc(F)c(C[C@H](N)c2ccccc2-c2noc3ccccc23)n1", "note": "[Example 5, (S)-1-[2-(Benzo[d]isoxazol-3-yl)phenyl]-2-[3-fluoro-6-(methylsulfonyl)pyridine-2-yl]ethan-1-amine hydrochloride]", "values": [{"measurement": "Mechanical analgesia (von Frey)", "setting": "[1]; 0.1 mg/kg i.p.", "value": "partial analgesia"}, {"measurement": "Mechanical analgesia (von Frey), first dose", "setting": "[1]; 0.2 mg/kg every two hours, first dose", "value": "only partial analgesia"}, {"measurement": "Mechanical analgesia (von Frey), subsequent doses", "setting": "[1]; 0.2 mg/kg every two hours, subsequent doses", "value": "increase in analgesia towards full analgesia"}, {"measurement": "Mechanical analgesia (von Frey)", "setting": "[1]; 0.5 mg/kg i.p.", "value": "full analgesia"}, {"measurement": "Mechanical analgesia (von Frey), successive doses over 4 days", "setting": "[1]; 0.5 mg/kg twice-daily at 8 hour intervals, 4 days", "value": "full and sustained analgesia"}, {"measurement": "Mechanical analgesia (von Frey), 4 hours after first injection", "setting": "[1]; 0.5 mg/kg twice-daily at 8 hour intervals, first injection", "value": "little analgesia"}, {"measurement": "ED50", "setting": "[1]; Mus musculus, ip, maximal analgesia, n=3-4 mice, read-out: Analgesic ED50", "value": 0.17, "unit": "mg/kg"}, {"measurement": "Analgesia, paw pressure (Randall Sellito)", "setting": "[2]; 0.1 mg/kg i.p.", "value": "partial analgesia"}, {"measurement": "Analgesia, paw pressure (Randall Sellito)", "setting": "[2]; 0.5 mg/kg i.p.", "value": "full analgesia"}]}
{"smiles": "COc1cc2c(cc1OC)CC(=O)N(CCCN(C)C[C@H]1Cc3cc(OC)c(OC)cc31)CC2", "note": "[ivabradine, Ivabradine]", "values": [{"measurement": "Kp at 30 min", "setting": "[3]", "value": 0.57}, {"measurement": "Effect on GPIAS (behavioural gap detection)", "setting": "[4]", "value": "reversed GPIAS; also recorded: restored"}, {"measurement": "Effect on GPIAS in noise-exposed guinea pigs showing no behavioural tinnitus", "setting": "[5]; control experiments, n=3", "value": "without effect on GPIAS; also recorded: without effect on gap detection"}, {"measurement": "Effect on reduced GPIAS after noise exposure", "setting": "[5]; guinea pigs with impaired GPIAS, 5 mg/kg s.c.", "value": "rapidly and completely reversed; also recorded: fully restores GPIAS"}, {"measurement": "Therapeutic window between analgesia and bradycardia", "setting": "Black6 mice", "value": "little therapeutic window"}, {"measurement": "Effect on ABR threshold or latency", "setting": "mice, normal hearing", "value": "no significant difference"}]}
